The values that follow come from US12098154B2, “Inhibitors of cyclin-dependent kinases” (Dana-Farber Cancer Institute, Inc., priority 2015, dated 2024).

The target in one experiment is CDK12/CCNK complex (Homo sapiens, UniProt Q9NYV4). The experiment is described as follows: Electrospray ionization mass spectra of CDK12/CCNK complex after treatment. The experiment is classed as binding. To be noted: 1 hr at room temperature. The source says: The zero-charge mass spectra in the upper panel and inset is the result of deconvolution of the raw mass spectrum in the lower panel. A. CCNK. C, phosphorylated CDK12. D, CDK12.
The zero-charge mass spectra in the upper panel and inset is the result of deconvolution of the raw mass spectrum in the lower panel. A, CCNK. B, phosphorylated and E-9 labeled CDK12. C, E-9 labeled CDK12.

The next experiment deals with T1, CDK7 (Homo sapiens, UniProt P50613).
T1 construct: endogenous in cells; host or cells: Jurkat
The experiment is described as follows: Pulldown assay with biotin-THZ1, blot for Cyclin H. The experiment is classed as cell-based. The settings on record: Jurkat cells treated with 1 uM or 200 nM. On the procedure: Compounds E9 and E17 were able to block pulldown of cyclin K at 1 μM and 200 nM. Specifically. […] Decreased pulldown of cyclin K with biotin-THZ1 indicated a loss of CDK12 binding.
(§1) 6 hours after treatment, cells were washed and harvested by resuspending in lysis buffer (50 mM Hepes pH 7.4, 150 mM NaCl, 1% NP-40, 5 mM EDTA, protease and phosphatase inhibitors) and lysing on ice 30 minutes. Lysates were cleared by centrifugation at 15,000 rpm 30 minutes. Biotin-labeled THZ1 was added to 1 uM to lysates and rotated at 4° C. overnight. Streptavidin-agarose beads were washed and 30 uL slurry was added to each lysate and rotated for 1 hour at 4° C. Beads were washed 5 times with lysis buffer and 50 uL 2×LDS buffer was added to each sample. Samples were boiled and equal volume of protein was loaded onto gel. Gel was transferred to nitrocellulose and blotted for Cyclin K and Cyclin H.

The target in a further experiment is T2, CDK12 (Homo sapiens, UniProt Q9NYV4).
T2 construct: endogenous in cells; host or cells: Jurkat
As to the kind of experiment: Pulldown assay with biotin-THZ1, blot for Cyclin K. To be noted: Jurkat cells treated with 1 uM or 200 nM. The experiment is classed as cell-based. On the procedure:
Specifically. […] Decreased pulldown of cyclin K with biotin-THZ1 indicated a loss of CDK12 binding.
as §1

Another experiment has as its target CDK7/CycH (Homo sapiens, UniProt P50613). As to the kind of experiment: CDK7/CycH inhibition (Tables A1, A2). It is filed as biochemical.
In experiment [1] the test system is Pol II Ser2 phosphorylation and MCL1 levels. As to the kind of experiment: Washout expression assay (western blot). The experiment is classed as cell-based. The settings on record: Jurkat cells, 1 uM, 4 hours, 6 hours. On the procedure:
4 hours after treatment, cells were either not treated or washed three times with RPMI media to remove all compound. Cells were replated and allowed to grow for 6 hours. Cells were harvested, washed 3 times with PBS and resuspended in RIPA buffer (25 mM Tris-HCl (pH 7.6), 150 mM NaCl, 1% NP-40, 1% sodium deoxycholate, 0.1% SDS). Equal amount of protein was loaded onto gel and blotted for Pol II Ser2 (Millipore 04-1571), total pol II (Santa Cruz 17798), Tubulin (Cell Signaling 11H10) or MCL1 (Cell Signaling 4572S)

The subject of experiment [2] is Jurkat cells. As to the kind of experiment: Jurkat proliferation assay (CellTiter-Glo). The settings on record: for pIC50: Homo sapiens, Jurkat. It is filed as cell-based. On the procedure:
Jurkat cells were seeded at a density of 25,000 cells/well in 96-well plates. Cells were then treated with the indicated compounds in a 10-pt dose escalation format from 1 nM to 10 μM or DMSO control for 72 hours. After 72 hours, the cells were assayed using CellTiter-Glo Luminescent Cell Viability Assay (Promega) to determine cell viability by measuring the amount of ATP present in each sample cell population, which is an indicator of cell metabolic activity. […] All data points were performed in biological triplicate. Error bars are +/−SD.
Jurkat cells were seeded at a density of 25,000 cells/well in 96-well plates. Cells were then treated with the indicated compounds in a 10-pt dose escalation format from 1 nM to 10 μM or DMSO control for 72 hrs. After 72 hrs, cells were assayed using CellTiter-Glo Luminescent Cell Viability Assay (Promega) to determine cell viability by measuring the amount of ATP present in each sample cell population, which is an indicator of cell metabolic activity. […] All data points were performed in biological triplicate. Error bars are +/−SD.
On the technique in general: Cellular ATP, detected with luciferase, serves as a proxy for viable cell number.

Another experiment has as its target CDK2/CycA (Homo sapiens, UniProt P24941). As to the kind of experiment: CDK2/CycA inhibition (Tables A1, A2). The experiment is classed as biochemical.
A further experiment concerns CDK12 and CDK13. As to the kind of experiment: KiNativ kinome profiling. The experiment is classed as binding. The settings on record: 1 μM, 6 hrs. On the procedure: Jurkat cells were seeded at a density of 100 million cells/50 mL. Cells were treated with E9 (1 μM) or DMSO control for 6 hrs. Cells were washed twice with cold phosphate-buffered saline (PBS). PBS-washed cell pellets were flash frozen and subjected to KiNativt™ kinome profiling at ActivX Biosciences, Inc. according to their specifications using their desthiobiotin-ATP probe. Peptide sequences shown in Table A4 belong to the indicated kinase(s) and were detected by mass spectrometry (MS) under DMSO control conditions following enrichment for biotinylated proteins by streptavidin pulldown and subsequent proteolysis. Kinases labeled by the reactive desthiobiotin-ATP probe indicate that the kinase was accessible to desthiobiotin-ATP probe binding. Results shown are normalized to these paired DMSO controls and numbers represent the percentage (compared to DMSO control) of MS signal lost for sequences of an indicated kinase, eg—numbers approaching 100% indicate that test compound effectively out-competed the desthiobiotin ATP probe for binding to the kinase, resulting in decreased labeling and enrichment for peptides representing this kinase.

Experiment [3] concerns Jurkat cells. As to the kind of experiment: Growth assay with and without washout. It is filed as cell-based. To be noted: 1 uM, 4 hours treatment, assayed 68 hours after washout. On the procedure: Cells were treated with each compound for 4 hours and either no washout (no washout) or had compound removed by washing cells with media (washout). Sixty-eight (68) hours after washout, the cells were assayed for antiproliferative effects. Error bars indicate +/−SD.
4 hours after treatment, cells were either not treated or washed three times with RPMI media to remove all compound. Cells were replated and allowed to grow for 68 hours. Cells were assayed using celltiter glo (Promega) to determine cell viability by measuring the amount of ATP present, which is an indicator of cell metabolic activity. Results are graphed as luminescent values (FIG. 1).

A further experiment has as its target CDK9/CycT (Homo sapiens, UniProt P50750). The experiment is described as follows: CDK9/CycT inhibition (Tables A1, A2). It is filed as biochemical.
Experiment [4] concerns TAL1, RUNX1, and MYB mRNA transcripts. The experiment is described as follows: Jurkat gene expression analysis (qPCR). It is filed as cell-based. To be noted: 1 μM, 6 hrs, Jurkat cells. On the procedure:
Jurkat cells were seeded at a density of 5 million cells/10 mL. Cells were then treated with 200 nM or 1 μM of the indicated compounds or with DMSO control for 6 hours. Total RNA was extracted from 5 million cells using the RNeasy Plus Mini Kit (Qiagen) with a gDNA eliminator mini column to remove genomic DNA. mRNA was reverse transcribed into cDNA using the SuperScript III First-Strand Synthesis Kit (Life Technologies) using an oligo-dT primer to capture polyadenylated mRNAs. Quantitative PCR (qPCR) using transcript-specific Taqman probes (Applied Biosystems) was used to assess the effect of compound treatment on the expression of the indicated mRNA transcripts. All experiments shown were performed in biological triplicate. Each individual biological sample was qPCR-amplified in technical duplicate. Error bars are +/−SD. Expression data from drug treatments were normalized to GAPDH probe.
Jurkat cells were seeded at a density of 5 million cells/10 mL. Cells were then treated with 200 nM or 1 μM of the indicated compounds or with DMSO control for 6 hrs. […] Quantitative PCR (qPCR) using transcript-specific Taqman probes (Applied Biosystems) was used to assess the effect of compound treatment on the expression of the indicated mRNA transcripts. […]
(Quantitative PCR measures a nucleic acid by following its amplification.)

Setting [5] is: 72 h, CellTiter-Glo, read-out: IC50 on Jurkat T-ALL cell proliferation.

Each structure is given as a SMILES string. pIC50: −log10 of the molar value. Read-outs that look alike come from different tables or passages of the source. Bounds are passed on as bounds.

Chain of CDK7/CycH (P50613 whole entry): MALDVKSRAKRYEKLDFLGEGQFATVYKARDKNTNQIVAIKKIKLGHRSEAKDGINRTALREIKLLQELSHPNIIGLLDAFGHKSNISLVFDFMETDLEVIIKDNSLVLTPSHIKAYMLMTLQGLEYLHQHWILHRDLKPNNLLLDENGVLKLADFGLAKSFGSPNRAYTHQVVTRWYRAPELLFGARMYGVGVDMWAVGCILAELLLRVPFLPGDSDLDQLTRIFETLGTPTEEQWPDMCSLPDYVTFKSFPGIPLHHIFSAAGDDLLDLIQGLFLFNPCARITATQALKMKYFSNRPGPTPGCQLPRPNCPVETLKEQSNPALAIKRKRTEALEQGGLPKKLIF
Chain of CDK7/CycH (P51946 whole entry partner): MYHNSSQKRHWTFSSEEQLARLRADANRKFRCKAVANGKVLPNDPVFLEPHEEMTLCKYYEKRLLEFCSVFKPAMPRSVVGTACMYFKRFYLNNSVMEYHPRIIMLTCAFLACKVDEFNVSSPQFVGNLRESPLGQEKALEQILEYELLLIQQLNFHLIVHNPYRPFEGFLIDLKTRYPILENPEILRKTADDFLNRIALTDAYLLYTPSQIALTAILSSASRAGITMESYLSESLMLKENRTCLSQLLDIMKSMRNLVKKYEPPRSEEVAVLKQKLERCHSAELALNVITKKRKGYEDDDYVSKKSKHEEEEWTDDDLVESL
Chain of CDK9/CycT (P50750 whole entry): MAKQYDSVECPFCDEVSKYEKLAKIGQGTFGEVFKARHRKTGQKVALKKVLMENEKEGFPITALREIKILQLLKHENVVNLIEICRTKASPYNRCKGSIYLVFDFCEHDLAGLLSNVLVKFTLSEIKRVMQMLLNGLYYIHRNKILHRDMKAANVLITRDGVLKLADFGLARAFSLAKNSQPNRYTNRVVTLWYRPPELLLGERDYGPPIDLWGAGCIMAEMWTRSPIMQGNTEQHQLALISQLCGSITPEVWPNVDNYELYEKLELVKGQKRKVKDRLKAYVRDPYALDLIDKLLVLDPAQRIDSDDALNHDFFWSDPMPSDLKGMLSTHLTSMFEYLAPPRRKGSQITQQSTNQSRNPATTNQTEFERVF
Chain of CDK9/CycT (O60563 whole entry partner): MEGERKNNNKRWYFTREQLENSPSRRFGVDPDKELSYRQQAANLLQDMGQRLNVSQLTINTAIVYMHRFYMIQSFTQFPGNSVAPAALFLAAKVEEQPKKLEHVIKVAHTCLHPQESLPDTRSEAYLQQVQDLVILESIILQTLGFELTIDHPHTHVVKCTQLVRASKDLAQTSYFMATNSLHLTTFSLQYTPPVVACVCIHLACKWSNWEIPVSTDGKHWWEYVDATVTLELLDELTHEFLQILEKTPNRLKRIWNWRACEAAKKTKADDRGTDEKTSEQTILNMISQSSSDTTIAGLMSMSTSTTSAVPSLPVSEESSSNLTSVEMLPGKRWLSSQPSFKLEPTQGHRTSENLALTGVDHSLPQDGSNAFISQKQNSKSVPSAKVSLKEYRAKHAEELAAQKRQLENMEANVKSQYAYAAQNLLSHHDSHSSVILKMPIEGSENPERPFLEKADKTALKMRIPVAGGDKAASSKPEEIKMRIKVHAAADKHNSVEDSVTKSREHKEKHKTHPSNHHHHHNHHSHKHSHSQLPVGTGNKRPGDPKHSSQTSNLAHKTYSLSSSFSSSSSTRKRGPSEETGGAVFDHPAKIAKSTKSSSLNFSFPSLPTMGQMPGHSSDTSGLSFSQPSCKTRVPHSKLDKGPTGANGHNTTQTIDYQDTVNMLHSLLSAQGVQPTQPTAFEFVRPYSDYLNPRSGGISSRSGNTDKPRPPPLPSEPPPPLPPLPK
T1 sequence (P50613 2-346 limits assumed): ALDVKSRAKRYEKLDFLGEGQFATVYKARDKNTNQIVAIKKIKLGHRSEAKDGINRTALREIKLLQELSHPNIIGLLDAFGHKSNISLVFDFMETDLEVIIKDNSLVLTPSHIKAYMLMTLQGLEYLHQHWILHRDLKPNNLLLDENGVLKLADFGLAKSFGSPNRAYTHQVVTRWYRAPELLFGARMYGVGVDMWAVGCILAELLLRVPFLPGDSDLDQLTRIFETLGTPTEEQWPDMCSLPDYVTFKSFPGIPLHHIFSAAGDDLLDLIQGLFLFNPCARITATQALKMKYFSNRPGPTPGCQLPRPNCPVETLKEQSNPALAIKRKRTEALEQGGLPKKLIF
T1 sequence (P51946 whole entry partner): as the sequence (P51946 whole entry partner) above
T1 sequence (P51948 whole entry partner): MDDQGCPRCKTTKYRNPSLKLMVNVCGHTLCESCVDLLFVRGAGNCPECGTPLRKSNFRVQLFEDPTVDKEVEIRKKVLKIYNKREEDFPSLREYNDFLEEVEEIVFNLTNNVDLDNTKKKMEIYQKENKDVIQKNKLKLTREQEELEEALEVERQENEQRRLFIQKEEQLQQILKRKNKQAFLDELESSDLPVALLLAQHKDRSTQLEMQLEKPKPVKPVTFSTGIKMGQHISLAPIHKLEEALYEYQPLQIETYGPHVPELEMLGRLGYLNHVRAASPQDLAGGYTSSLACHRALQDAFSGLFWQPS
T2 sequence (Q9NYV4 whole entry): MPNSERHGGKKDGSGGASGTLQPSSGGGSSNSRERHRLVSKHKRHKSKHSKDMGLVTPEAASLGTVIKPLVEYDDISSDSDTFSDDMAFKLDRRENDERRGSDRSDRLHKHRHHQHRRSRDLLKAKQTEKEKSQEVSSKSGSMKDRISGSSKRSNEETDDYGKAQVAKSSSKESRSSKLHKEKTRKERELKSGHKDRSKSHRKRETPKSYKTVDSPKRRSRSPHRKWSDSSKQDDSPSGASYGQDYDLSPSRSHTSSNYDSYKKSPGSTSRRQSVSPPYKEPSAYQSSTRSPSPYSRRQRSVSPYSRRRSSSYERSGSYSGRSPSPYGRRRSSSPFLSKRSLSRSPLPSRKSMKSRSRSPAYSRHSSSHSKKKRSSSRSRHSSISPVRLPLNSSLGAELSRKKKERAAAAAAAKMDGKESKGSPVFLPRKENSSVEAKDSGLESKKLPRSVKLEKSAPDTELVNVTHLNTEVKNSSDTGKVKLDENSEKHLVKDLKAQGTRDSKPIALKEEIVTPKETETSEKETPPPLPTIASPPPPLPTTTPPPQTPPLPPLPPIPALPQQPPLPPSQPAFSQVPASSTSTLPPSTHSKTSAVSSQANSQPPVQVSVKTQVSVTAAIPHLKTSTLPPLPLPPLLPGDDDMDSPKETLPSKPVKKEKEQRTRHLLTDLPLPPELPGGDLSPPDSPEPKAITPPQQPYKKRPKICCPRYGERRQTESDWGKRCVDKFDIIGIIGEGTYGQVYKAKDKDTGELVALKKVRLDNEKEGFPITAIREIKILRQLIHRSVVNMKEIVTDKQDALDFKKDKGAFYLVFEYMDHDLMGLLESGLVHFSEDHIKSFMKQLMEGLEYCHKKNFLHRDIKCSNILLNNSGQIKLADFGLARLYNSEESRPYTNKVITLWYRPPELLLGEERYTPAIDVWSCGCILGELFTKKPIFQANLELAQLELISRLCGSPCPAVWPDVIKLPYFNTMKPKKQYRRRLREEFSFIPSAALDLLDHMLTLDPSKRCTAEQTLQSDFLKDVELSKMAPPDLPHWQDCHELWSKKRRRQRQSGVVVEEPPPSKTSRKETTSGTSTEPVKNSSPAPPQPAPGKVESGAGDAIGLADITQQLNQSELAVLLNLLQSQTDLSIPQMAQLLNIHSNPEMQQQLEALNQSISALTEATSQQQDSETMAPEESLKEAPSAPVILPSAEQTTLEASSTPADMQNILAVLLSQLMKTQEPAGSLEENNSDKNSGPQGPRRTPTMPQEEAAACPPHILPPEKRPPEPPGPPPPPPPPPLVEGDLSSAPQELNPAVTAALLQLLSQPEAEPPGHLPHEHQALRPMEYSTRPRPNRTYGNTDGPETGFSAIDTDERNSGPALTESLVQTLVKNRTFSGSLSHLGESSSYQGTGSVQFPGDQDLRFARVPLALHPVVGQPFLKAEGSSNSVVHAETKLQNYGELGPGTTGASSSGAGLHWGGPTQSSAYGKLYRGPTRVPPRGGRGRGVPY
T2 sequence (O75909 whole entry partner): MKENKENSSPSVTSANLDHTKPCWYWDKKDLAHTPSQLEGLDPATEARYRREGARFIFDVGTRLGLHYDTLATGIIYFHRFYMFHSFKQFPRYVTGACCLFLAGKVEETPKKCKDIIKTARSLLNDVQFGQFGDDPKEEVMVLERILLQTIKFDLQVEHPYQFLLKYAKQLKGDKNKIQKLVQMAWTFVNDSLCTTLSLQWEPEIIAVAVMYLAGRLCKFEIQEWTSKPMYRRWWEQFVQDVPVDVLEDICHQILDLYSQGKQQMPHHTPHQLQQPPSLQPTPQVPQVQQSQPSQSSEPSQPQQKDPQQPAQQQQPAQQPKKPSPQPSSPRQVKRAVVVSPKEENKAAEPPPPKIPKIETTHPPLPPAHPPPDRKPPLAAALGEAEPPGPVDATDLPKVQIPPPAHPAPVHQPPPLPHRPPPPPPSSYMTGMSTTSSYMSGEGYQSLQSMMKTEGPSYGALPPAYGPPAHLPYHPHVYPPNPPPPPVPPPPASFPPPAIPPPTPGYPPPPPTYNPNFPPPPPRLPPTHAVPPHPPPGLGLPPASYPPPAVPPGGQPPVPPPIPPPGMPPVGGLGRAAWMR
Chain of CDK12/CCNK complex (Q9NYV4 whole entry): as the sequence (Q9NYV4 whole entry) above
Chain of CDK12/CCNK complex (O75909 whole entry partner): as the sequence (O75909 whole entry partner) above

Regarding `C=CC(=O)Nc1cccc(Nc2cc(N3CCCCC3CCO)nc3c(CC)cnn23)c1` (centres unmarked) [E-9(SB1-E-23), N-(3-(3-Ethyl-5-(2-(2-hydroxyethyl)piperidin-1-yl)pyrazolo[1,5-a]pyrimidin-7-ylamino)phenyl)acrylamide], the “Labeling of CDK12 (mass shift)” value on CDK12/CCNK complex is listed as “Only the masses of CDK12 proteins shift after treatment”. The “Pulldown of Cyclin H by biotin-THZ1 (CDK7 binding)” value at CDK7 is reported as “not able to bind to CDK7”. For the same compound, the “Pulldown of Cyclin K by biotin-THZ1 (CDK12 binding)” value on CDK12 is on record as “blocks the pulldown of Cyclin K”. The pIC50 is 5.96 at CDK7/CycH; over 7.00 in the experiment with Jurkat cells [2] (72 h, read-out: IC50 on Jurkat T-ALL cell proliferation); 7.10 with Jurkat cells [2] (read-out: Jurkat IC50); 6.60 against CDK2/CycA; 7.67 against CDK9/CycT. Moreover, in [1], the “Effect on Polymerase II Serine 2 phosphorylation and MCL1 levels with and without washout” value is given as “irreversible effect”. In addition, the “Mode of inhibition of Jurkat T-ALL cell proliferation” value in the experiment with Jurkat cells [2] was “irreversiably inhibit”. In addition, the “Kinases bound in Jurkat cells (competition with desthiobiotin-ATP probe)” value with CDK12 and CDK13 is “binds predominantly CDK12 and CDK13”. For the same compound, the “Inhibition of Jurkat cell viability with and without washout” value in the experiment on Jurkat cells [3] is given as “irreversibly inhibit Jurkat cell viability”.

Take `C=CC(=O)Nc1cccc(Nc2nc(N3CCCCC3CCO)nc3c(CC)cnn23)c1` (centres unmarked) [SB1-E-18, N-(3-(8-Ethyl-2-(2-(2-hydroxyethyl)piperidin-1-yl)pyrazolo[1,5-a][1,3,5]triazin-4-ylamino)phenyl)acrylamide]: the pIC50 on CDK7/CycH is 6.34; with Jurkat cells [2] (read-out: Jurkat IC50), 7.72; at CDK2/CycA, 7.82; against CDK9/CycT it was 7.38. For the same compound, the “Mode of inhibition of Jurkat T-ALL cell proliferation” value with Jurkat cells [2] is “irreversiably inhibit”.

Regarding `C=CC(=O)Nc1cccc(Nc2cc(N[C@H]3CC[C@H](N(C)C)CC3)nc3c(C(C)C)cnn23)c1` [SB1-E-26, N-(3-(5-((1r,4r)-4-(Dimethylamino)cyclohexylamino)-3-isopropylpyrazolo[1,5-a]pyrimidin-7-ylamino)phenyl)acrylamide], the pIC50 is 5.96 against CDK7/CycH; under 6.52 in the experiment with Jurkat cells [2] (setting [5]); 6.29 in the experiment on Jurkat cells [2] (read-out: Jurkat IC50); 6.03 at CDK2/CycA; 6.37 on CDK9/CycT. The “Downregulation of TAL1, RUNX1, MYB transcripts” value in experiment [4] is listed as “potently reduce”.

For the compound `C=CC(=O)Nc1ccc(C(=O)Nc2cccc(Nc3nc(N4CCCCC4CCO)nc4c3ncn4C(C)C)c2)cc1` (centres unmarked) [THZ-4-124-1, 4-Acrylamido-N-(3-((2-(2-(2-hydroxyethyl)piperidin-1-yl)-9-isopropyl-9H-purin-6-yl)amino)phenyl)benzamide], the pIC50 against CDK7/CycH is 6.91; with Jurkat cells [2] (read-out: Jurkat IC50), 6.93; at CDK2/CycA, 6.01; at CDK9/CycT it was 6.43.

In the case of `C=CC(=O)Nc1cccc(Nc2nc(N3CCCCC3CCO)nc3c2ncn3C(C)C)c1` (centres unmarked) [THZ-4-134-1, N-(3-((2-(2-(2-Hydroxyethyl)piperidin-1-yl)-9-isopropyl-9H-purin-6-yl)amino)phenyl)acrylamide], the pIC50 at CDK7/CycH was 5.93; with Jurkat cells [2] (read-out: Jurkat IC50) it was 6.28; at CDK2/CycA, 6.79; against CDK9/CycT, 6.42.

For `CCc1cnn2c(Nc3cccc(NC(=O)c4ccc(NC(=O)/C=C/CN(C)C)cc4)c3)cc(N3CCCC(N)C3)nc12` (centres unmarked) [THZ-4-128-1, (E)-N-(3-((5-(3-Aminopiperidin-1-yl)-3-ethylpyrazolo[1,5-a]pyrimidin-7-yl)amino)phenyl)-4-(4-(dimethylamino)but-2-enamido)benzamide], the pIC50 against CDK7/CycH is 7.33; in the experiment on Jurkat cells [2] (read-out: Jurkat IC50), 5.98; against CDK2/CycA, 4.77; against CDK9/CycT it was 7.13.

`C=CC(=O)Nc1cccc(Nc2cc(N[C@H]3CC[C@H](N(C)C)CC3)nc3c(CC)cnn23)c1` [SB1-E-21, N-(3-(5-((1r,4r)-4-(Dimethylamino)cyclohexylamino)-3-ethylpyrazolo[1,5-a]pyrimidin-7-ylamino)phenyl)acrylamide]: the pIC50 was 5.92 on CDK7/CycH; under 6.52 with Jurkat cells [2] (setting [5]); 6.50 with Jurkat cells [2] (read-out: Jurkat IC50); 5.91 against CDK2/CycA; 6.65 on CDK9/CycT. The “Downregulation of TAL1, RUNX1, MYB transcripts” value in experiment [4] is recorded as “potently reduce”.

On to `CC(C)n1cnc2c(Nc3cccc(NC(=O)c4ccc(NC(=O)/C=C/CN(C)C)cc4)c3)nc(N3CCCC(N)C3)nc21` (centres unmarked) [THZ-4-119-1, (E)-N-(3-((2-(3-Aminopiperidin-1-yl)-9-isopropyl-9H-purin-6-yl)amino)phenyl)-4-(4-(dimethylamino)but-2-enamido)benzamide], for which the pIC50 was 7.94 against CDK7/CycH, 5.71 with Jurkat cells [2] (read-out: Jurkat IC50) and 6.28 against CDK9/CycT.
